Laboratory results reported in patent US6844466B2, “Alkyl urea retinoid agonists” (Syntex (U.S.A.) LLC, priority 2001, dated 2005).
Several values for one entry are separate records, joined by “and”; a condition that tells them apart may be missing. Equal entries are not always repeated.

What was measured:
[1] = test system: retinoic acid receptor (α, β and γ); test: Transactivation of retinoic acid receptors; format: cell-based; settings: compared to prior art compounds 39 and 40
Source text: Transactivation, which is the ability of a retinoid to activate gene transcription when gene transcription is initiated by the binding of a ligand to the particular retinoic acid receptor being tested, may be determined by using methods described in the art (Apfel et al., Proc. Natl. Acad. Sci., 1992, 89, 7129; Bernard et al., Biochem. And Biophys. Res. Comm., 1992, 186, 977 which is herein incorporated by reference).

[2] = test system: rat model of elastase-induced emphysema; test: Alveolar repair in the rat model of elastase-induced emphysema; format: in vivo, male Sprague Dawley rats; settings: oral once per day, lower dosage levels (0.01 or 0.001 mg/kg), p≦0.05, FIG. 1
Source text: Compounds of the invention may be evaluated for their effects on alveolar repair in the rat model of elastase-induced emphysema (Massaro et al., Nature, 1997, Vol. 3, No. 6: 675; Massaro et al., U.S. Pat. No. 5,998,486). Preferably, animals are divided into treatment groups of approximately eight. Lung inflammation and alveolar damage may be induced in male Sprague Dawley rats by a single instillation of about 2 U/gram body mass of pancreatic elastase (porcine derived, Calbiochem).
Animals may be treated with a compound of the invention formulated Miglyol at convenient oral dosage ranges (preferably, between about 10.0 mg/kg and 0.0001 mg/kg) and will be dosed orally once per day starting 21 days post injury. Control groups are challenged with elastase and 21 days later are treated with vehicle (Miglyol) for 14 days. Animals were sacrificed 24 hours after the last dose by exsanguination under deep anesthesia. Blood was collected at time of exsanguination for analysis.
The lungs are inflated with 10% neutral buffered formalin by intratracheal instillation at a constant rate (1 ml/gram body mass/min). […] The mean value/treatment group may be determined by summing the average area/rat for all eight rats/treatment groups and repair of elastase damage expressed as percentage of repair relative to the elastase+vehicle treated group from the following calculation: […]

[3] = Effect of RAR agonists on plasma triglyceride levels; format: in vivo, male, Wistar Han rats; settings: rat, oral
Source text: Sixty male, Wistar Han rats (Charles Rivers Laboratories) were used in this experiment. The received weight of the rats varied between 200-250 gm. The compounds used in this study were formulated in Miglyol 812, Batch 000719, Product #6330 (Condea) with 0.01% BHA and 0.01% BHT. Three RAR agonists, illustrated below, were compared with regards to their effects on triglyceride levels. Compounds 39 and 40 are prior art compounds (see, Hashimoto, Yuichi; Kagechika, Hiroyuki; Kawachi, Emiko; Fukasawa, Hiroshi; Saito, Go; Shudo, Koichi. “Evaluation of differentiation-inducing activity of retinoids on human leukemia cell lines HL-60 and NB4” Biol. Pharm. Bull. (1996), 19(10), 1322-1328; and Takagi, Kanji; Suganuma, Masami; Kagechika, Hiroyuki; Shudo, Koichi; Ninomiya, Mitsuo; Muto, Yasutoshi; Fujiki, Hirota. “Inhibition of ornithine decarboxylase induction by retinobenzoic acids in relation to their binding affinities to cellular retinoid-binding proteins” J. Cancer Res. Clin. Oncol. (1988), 114(3), 221-4, while compound 27 is a compound prepared in Example 7, herein.
Animals were dosed with compounds 27, 39 and 40 or vehicle for two weeks (one 1.0 mL dose a day, total of 10 doses) by oral administration. Doses were 0.3 mg/kg, 1 mg/kg and 3 mg/kg. Animals were weighed twice a week for monitoring gross toxicity (% weight change and mucutaneous).
Animals were fasted for at least 4 hours before terminal blood collection. At the end of the experiment the animals were placed under deep anesthesia using pentobarbital ip (30-40 mg). Five to six ml of blood was collected via cardiac puncture for blood chemistry (Quality Clinical Lab, Mountain View, Calif.) and PK analysis (terminal). Animals were euthanized by exsanguination from the abdominal aorta or cervical dislocation. Plasma was collected and stored at −20
Quantitation of triglycerides contained in rat plasma may be performed using established procedures. […] Hydrogen peroxide may be quantitated […] in a Hitachi 911 Chemistry Analyzer. […]

melting point | Structure (SMILES) | selectivity of transactivation among RAR α, β and γ [1] | other results
176 to 177 °C | CCCCCCN(C(=O)Nc1ccc(C(=O)O)cc1)c1ccc2c(c1)C(C)(C)CCC2(C)C [Compound 13, 4-[3-hexyl-3-(5,5,8,8-tetramethyl-5,6,7,8-tetrahydro-naphthalen-2-yl)-ureido]-benzoic acid] | – | –
166 to 167 °C and 165.8 to 167.2 °C | CCCCCCCCN(C(=O)Nc1ccc(C(=O)O)cc1)c1ccc2c(c1)C(C)(C)CCC2(C)C [Compound 25, 4-[3-octyl-3-(5,5,8,8-tetramethyl-5,6,7,8-tetrahydro-naphthalen-2-yl)-ureido]-benzoic acid] | – | –
150.9 to 157.4 °C | CCCCCN(C(=O)Nc1ccc(C(=O)O)cc1F)c1ccc2c(c1)C(C)(C)CCC2(C)C [Compound 57, 3-fluoro-4-[3-pentyl-3-(5,5,8,8-tetramethyl-5,6,7,8-tetrahydro-naphthalen-2-yl)-ureido]-benzoic acid] | – | –
– | CC1(C)CCC(C)(C)c2cc(NC(=O)Nc3ccc(C(=O)O)cc3)ccc21 [Compound 39, reference compound] | pan-agonists | –
– | CCCCCN(C(=O)Nc1ccc(C(=O)O)cc1)c1ccc2c(c1)C(C)(C)CCC2(C)C [Compound 27, 4-[3-pentyl-3-(5,5,8,8-tetramethyl-5,6,7,8-tetrahydro-naphthalen-2-yl)-ureido]-benzoic acid] | unexpectedly selective at activating transcription activity through the gamma receptor | alveolar repair [2]: significant; triglyceride levels expressed as a percentage relative to vehicle control (100%) ([3]; two weeks (10 doses), at the higher dose, FIG. 2): < 100%; elevation of triglyceride levels relative to vehicle control (in words) ([3]; two weeks, 0.3, 1 and 3 mg/kg): did not significantly elevate triglycerides levels
– | CN(C(=O)Nc1ccc(C(=O)O)cc1)c1ccc2c(c1)C(C)(C)CCC2(C)C [Compound 40, reference compound] | pan-agonists | dose dependence of triglyceride levels ([3]; two weeks, 0.3, 1 and 3 mg/kg): triglyceride levels increasing with increasing dosage
175 to 186 °C | CCCN(C(=O)Nc1ccc(C(=O)O)cc1)c1ccc2c(c1)C(C)(C)CCC2(C)C [Compound 55] | unexpectedly selective at activating transcription activity through the gamma receptor | –
